Experimental data published in patent publication EP4782437A1, “HETEROARYL COMPOUND, AND PREPARATION METHOD THEREFOR AND USE THEREOF IN MEDICINE” (Jiangsu Hengrui Pharmaceuticals Co., Ltd., priority 2023, dated 2025).

Key:
hERG potassium channels = hERG potassium channels (Homo sapiens, UniProt Q12809); experiment: in vitro
[1] = test system: B cell activation in human whole blood; experiment: Inhibition of B cell activation in human whole blood (CD69 expression, flow cytometry); format: cell-based; settings: anti-human IgD 30 µg/ml + IL-4 5 ng/ml, 18 hours, CD69-positive CD19-positive B cells, read-out: IC50 values of inhibitory activity against B cell activation in human whole blood
Description: Test example 2: Inhibitory activity of compounds of the present disclosure against B cell activation in human whole blood • I. Experimental materials and instruments • 1. Human whole blood (internal recruitment) • 2. Goat F(ab')2 anti-human IgD-UNLB (SouthernBiotech, 2032-01) • 3. DPBS (1x) (Gibco, 14190-144) • 4. Recombinant human IL-4 (Peprotech, 200-04) • 5. Brilliant Violet 421™ anti-human CD19 antibody (Biolegend, 302234) • 6. APC anti-human CD69 antibody (Biolegend, 310910) • 7. APC mouse IgG1, κ isotype control antibody (Biolegend, 400120) • 8. eBioscience™ 10X RBC lysis buffer (multi-species) (Thermo, 004300-54) • 9. NEST 96-well deep-well plate (Wuxi NEST Biotechnology Co., Ltd., 503501) • 10. 96-well round-bottom plate (Corning, 3788) • 11. 96-well flat-bottom plate (Corning, 3599) • 12. Attune™ NxT acoustic focusing cytometer (ThermoFisher Scientific, 4.2.0) • 13. Cell incubator (Thermo, Forma steri-cycle i160) • II. Experimental procedure
B cells express the B cell receptor (BCR) complex on their surface. When B cells in human whole blood are induced to activate, they can trigger the downstream signalling pathways of the receptor and express the activation marker CD69. The expression of CD69 in activated B cells was detected by flow cytometry, and the IC50 of the compounds were calculated to evaluate the effects of the compounds on BCR activation.
The test compounds dissolved in 100% DMSO at 20 mM were diluted with 100% DMSO to a concentration of 1 mM, which represents the 200× concentration of the highest compound concentration point in the reaction system. The compounds at this concentration were then subjected to 8-point 4-fold serial dilution with 100% DMSO. The positive control wells were set with 100% DMSO, whereas the negative control wells were set with Remiburtinib at a final concentration of 5 µM. The serially diluted compounds and 100% DMSO were further diluted 10-fold in PBS to achieve the 20× concentration, followed by thorough mixing.
After thorough mixing, the whole blood sample was transferred to a loading reservoir and then dispensed into a 96-well flat-bottom plate at 80 µl per well. The compound dilution was dispensed at 5 µl per well. The 11th column of each row was designated as the negative control well, with 5 µl of 100 µM positive control drug added to each well. After thorough mixing for 5 min, the plate was incubated in a 37°C incubator for 30 min. Human IgD antibody was diluted 1.67-fold with PBS to a concentration of 300 µg/mL, and 10 µl of the diluted solution was added to each well of the culture plate (final concentration: 30 µg/ml). Human IL-4 (stock solution at 50 µg/ml) was diluted 500-fold with PBS to a concentration of 100 ng/mL, and 5 µl of the diluted solution was added to each well of the culture plate (final concentration: 5 ng/ml). After thorough mixing for 5 min, the plate was cultured in a 37°C incubator with 5% CO2 for 18 hours.
Flow cytometry detection: CD69-APC, CD19-BV421 and CD4-APC antibodies, and the isotype control antibodies for CD69-APC were removed from 4°C storage. Each antibody was added at 1 µl per well. After thorough mixing for 5 min, the plate was incubated for 30 min at 4°C (refrigerator) in the dark for staining. The 10X RBC lysis buffer was diluted in water to prepare 1X RBC lysis buffer. Aliquots of 1 ml of the lysis buffer were dispensed into each well of a 96-well deep-well plate in advance. The stained samples were transferred into the deep-well plate containing the lysis buffer for erythrocyte lysis. After completing the transfer of an entire plate, the plate was incubated in the dark for 15-20 min. Upon completion of lysis, the plate was centrifuged at 2000 rpm for 4 min. Each well was washed with 1 ml of PBS. Subsequently, the cells were resuspended in 200 µl of PBS, transferred to a 96-well plate, and washed twice more using the same procedure. The samples were resuspended in 200 µl of PBS per well and then subjected to flow cytometry detection. […]

Chain of hERG potassium channels (Q12809 whole entry): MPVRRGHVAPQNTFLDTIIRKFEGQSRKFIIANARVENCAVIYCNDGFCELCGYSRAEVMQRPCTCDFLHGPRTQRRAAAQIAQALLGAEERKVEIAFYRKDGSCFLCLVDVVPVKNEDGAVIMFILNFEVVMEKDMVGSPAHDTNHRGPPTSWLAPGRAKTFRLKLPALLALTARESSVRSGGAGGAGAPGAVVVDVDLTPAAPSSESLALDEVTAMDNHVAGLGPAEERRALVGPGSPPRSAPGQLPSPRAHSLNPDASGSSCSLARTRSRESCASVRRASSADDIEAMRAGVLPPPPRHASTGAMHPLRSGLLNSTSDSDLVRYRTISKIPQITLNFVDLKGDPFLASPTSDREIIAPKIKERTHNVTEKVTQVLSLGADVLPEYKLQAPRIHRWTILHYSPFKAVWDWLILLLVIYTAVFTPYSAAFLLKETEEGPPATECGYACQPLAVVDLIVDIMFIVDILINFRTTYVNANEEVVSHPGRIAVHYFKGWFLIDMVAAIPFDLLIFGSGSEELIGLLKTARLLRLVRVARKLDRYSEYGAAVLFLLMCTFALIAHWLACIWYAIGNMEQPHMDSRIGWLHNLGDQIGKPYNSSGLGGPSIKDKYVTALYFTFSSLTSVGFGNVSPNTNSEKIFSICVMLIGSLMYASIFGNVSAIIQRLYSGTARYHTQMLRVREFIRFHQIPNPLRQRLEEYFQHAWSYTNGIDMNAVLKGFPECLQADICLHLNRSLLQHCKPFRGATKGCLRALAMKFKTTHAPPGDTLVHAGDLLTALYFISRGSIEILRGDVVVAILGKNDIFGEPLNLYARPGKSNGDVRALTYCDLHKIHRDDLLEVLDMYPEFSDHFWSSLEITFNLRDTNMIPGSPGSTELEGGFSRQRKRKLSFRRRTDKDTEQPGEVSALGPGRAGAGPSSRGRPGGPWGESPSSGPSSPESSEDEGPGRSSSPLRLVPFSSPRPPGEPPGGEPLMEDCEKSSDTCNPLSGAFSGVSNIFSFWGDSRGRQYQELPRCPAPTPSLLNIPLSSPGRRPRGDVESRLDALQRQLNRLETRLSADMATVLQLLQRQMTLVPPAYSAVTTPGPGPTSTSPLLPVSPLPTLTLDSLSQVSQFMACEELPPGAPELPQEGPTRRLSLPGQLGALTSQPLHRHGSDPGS

IC50 [1]: 10 to 100 nM
Compound: C=CC(=O)N(C)CCOc1c(N)ncnc1-c1cc(F)cc(NC(=O)c2cc3c(cc2F)C2(CC2)CO3)c1C [Example 3, N-(3-(6-amino-5-(2-(N-methacrylamido)ethoxy)pyrimidin-4-yl)-5-fluoro-2-methylphenyl)-5-fluoro-2H-spiro[benzofuran-3,1'-cyclopropane]-6-carboxamide]
IC50 (hERG potassium channels): > 12300 nM
